From patent US12655142B2 (Merck Patent GmbH, priority 2019, dated 2026) come the findings set out here.

Data set [1] deals with T1, GIST430/654 cell line expressing mutated constitutively active cKIT receptor tyrosine kinase (Δ560-576 deletion and V654A point mutation) (Homo sapiens, UniProt P10721, DEL560-576/V654A).
T1 construct: endogenous in cells; host or cells: GIST430/654 cells
The data set is described as follows: Cellular cKIT autophosphorylation (phospho-Y307-cKIT, Luminex bead assay) in GIST430/654 cells. Type of data set: cell-based. The following applies: compounds 45 min, read-out: GIST 430/654 IC50. The method, boiled down:
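Phospho-Y307 cKIT in lysates was measured on a Luminex bead assay, with total-cKIT capture overnight at 4 °C and phosphospecific plus PE secondary detection. Cells had 45 min exposure to a compound dilution series the day after plating: GIST430 (Δ560-576) or GIST430/654 (Δ560-576/V654A, grown with 100 nM imatinib). IC50 values are relative to 0.3% DMSO-treated cells.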

In another data set the target is T2, c-Kit(V654A) (Homo sapiens, UniProt P10721, V654A).
T2 construct: recombinant human c-Kit, amino acids 544-end containing the V654A mutation; GST (N)
The data set can be described thus: c-Kit(V654A) assay (33P-ATP filter binding kinase assay). The class given is biochemical. The following applies: recombinant human c-Kit aa 544-end V654A, ATP 200 μM. Summed up:
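Radiometric filter-binding read-out: substrate 33P incorporation counted by scintillation after P30 filtermat washes in 75 mM phosphoric acid and methanol. Enzyme: N-GST recombinant human c-Kit aa 544-end carrying V654A.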

A short description of data set [2]: Determination of Efflux-Ratio (ER) in Caco-2 cells. The following applies: human, Caco-2, pH 7.4.

T2 sequence (P10721 544-976 V654A): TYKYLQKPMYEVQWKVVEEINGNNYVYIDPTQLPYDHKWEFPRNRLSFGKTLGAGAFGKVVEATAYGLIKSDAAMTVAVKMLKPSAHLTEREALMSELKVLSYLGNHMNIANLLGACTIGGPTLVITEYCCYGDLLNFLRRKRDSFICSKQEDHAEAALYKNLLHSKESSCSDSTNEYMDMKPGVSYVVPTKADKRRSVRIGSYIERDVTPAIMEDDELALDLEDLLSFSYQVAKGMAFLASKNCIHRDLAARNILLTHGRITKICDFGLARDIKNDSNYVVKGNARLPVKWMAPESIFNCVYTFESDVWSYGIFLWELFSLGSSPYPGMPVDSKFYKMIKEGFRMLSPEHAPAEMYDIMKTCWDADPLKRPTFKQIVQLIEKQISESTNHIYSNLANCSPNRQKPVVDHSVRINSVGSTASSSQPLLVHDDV
T1 sequence (P10721 with tags, fused parts or gaps DEL560-576/V654A): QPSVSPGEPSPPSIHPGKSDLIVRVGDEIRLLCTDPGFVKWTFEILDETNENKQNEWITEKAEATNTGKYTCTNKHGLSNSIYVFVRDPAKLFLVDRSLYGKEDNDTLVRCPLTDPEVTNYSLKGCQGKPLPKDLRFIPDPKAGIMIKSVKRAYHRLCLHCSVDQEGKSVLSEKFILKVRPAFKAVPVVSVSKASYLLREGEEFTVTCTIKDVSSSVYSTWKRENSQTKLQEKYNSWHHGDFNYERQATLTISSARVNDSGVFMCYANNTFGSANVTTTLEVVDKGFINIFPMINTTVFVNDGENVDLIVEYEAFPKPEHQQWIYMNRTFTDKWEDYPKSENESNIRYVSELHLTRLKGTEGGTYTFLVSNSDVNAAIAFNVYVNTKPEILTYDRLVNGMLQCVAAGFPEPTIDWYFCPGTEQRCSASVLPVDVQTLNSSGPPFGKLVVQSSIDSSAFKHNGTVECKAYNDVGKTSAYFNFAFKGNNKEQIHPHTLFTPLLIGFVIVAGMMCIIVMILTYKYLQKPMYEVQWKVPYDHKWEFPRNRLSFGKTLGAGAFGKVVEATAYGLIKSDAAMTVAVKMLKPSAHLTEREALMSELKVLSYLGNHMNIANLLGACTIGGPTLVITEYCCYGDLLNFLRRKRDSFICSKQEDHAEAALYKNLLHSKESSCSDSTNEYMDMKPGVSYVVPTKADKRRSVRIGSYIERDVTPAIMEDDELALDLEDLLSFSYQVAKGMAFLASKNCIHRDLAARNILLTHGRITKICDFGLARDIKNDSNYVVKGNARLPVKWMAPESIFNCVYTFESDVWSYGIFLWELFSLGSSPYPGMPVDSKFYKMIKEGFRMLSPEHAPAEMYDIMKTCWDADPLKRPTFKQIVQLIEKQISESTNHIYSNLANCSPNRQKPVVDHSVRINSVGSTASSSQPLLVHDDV

Consider `Cn1cc(-c2ccc(CNc3cc(-c4cnc5cc(OCCCO)ccn45)ncn3)cc2)cn1` [A131, 3-(3-{6-[4-(1-methyl-1H-pyrazol-4-yl)-benzylamino]-pyrimidin-4-yl}-imidazo[1,2-a]pyridin-7-yloxy)-propan-1-ol], for which the IC50 in data set [1] is 69 nM; on c-Kit(V654A) it was 7.5 nM. Moreover, the efflux ratio (in general, a quotient of directional permeabilities that is used to spot active efflux) at 2 h, 1 μM in data set [2] is < 15.
Take `Cn1ncc(-c2ccc(CNc3cc(-c4cnc5cc(OCCCN6CCOCC6)ccn45)ncn3)cc2)n1` [A133]: the IC50 in data set [1] was 30 nM; on c-Kit(V654A), 2.6 nM. The efflux ratio at 2 h, 1 μM in data set [2] was < 15.
On the same counts, the results for `Cn1cc(-c2ccc(CNc3cc(-c4cnc5cc(OCCN6CC(F)C6)ccn45)ncn3)cc2)cn1` [A140, 6-{7-[2-(3-fluoroazetidin-1-yl)ethoxy]imidazo[1,2-a]pyridin-3-yl}-N-{[4-(1-methyl-1H-pyrazol-4-yl)phenyl]methyl}pyrimidin-4-amine] are 26 nM, 11 nM and < 15.
In the case of `CN1CCN(CCOc2ccn3c(-c4cc(NCc5ccc(-c6cnn(C)c6)cc5)ncn4)cnc3c2)C(=O)C1` [A141, 4-methyl-1-[2-({3-[6-({[4-(1-methyl-1H-pyrazol-4-yl)phenyl]methyl}amino)pyrimidin-4-yl]imidazo[1,2-a]pyridin-7-yl}oxy)ethyl]piperazin-2-one], the IC50 in data set [1] was determined as 85 nM; on c-Kit(V654A), 15 nM. Also, the efflux ratio at 2 h, 1 μM in data set [2] is > 50.
With `CN1CC(COc2ccn3c(-c4cc(NCc5ccc(-c6cnn(C)c6)cc5)ncn4)cnc3c2)C1` [A144, N-{[4-(1-methyl-1H-pyrazol-4-yl)phenyl]methyl}-6-{7-[(1-methylazetidin-3-yl)methoxy]imidazo[1,2-a]pyridin-3-yl}pyrimidin-4-amine], the IC50 in data set [1] was 61 nM; on c-Kit(V654A), 5.1 nM. Further, the efflux ratio at 2 h, 1 μM in data set [2] was > 50.
As for `COc1ccn2c(-c3cc(OCc4ccc(-c5cnn(C)c5)cc4)ncn3)cnc2c1` [A158, 7-methoxy-3-{6-[4-(1-methyl-1H-pyrazol-4-yl)-benzyloxy]-pyrimidin-4-yl}-imidazo[1,2-a]pyridine], the results for the IC50 (in data set [1]; on c-Kit(V654A)) were 140 nM and 13 nM, respectively. Besides, the efflux ratio at 2 h, 1 μM in data set [2] was < 15.
On to `Cn1ncc(-c2ccc(CNc3cc(-c4cnc5cc(OCC6CCNCC6)ccn45)ncn3)cc2)n1` [A165], for which the IC50 was determined as 57 nM in data set [1] and 2 nM at c-Kit(V654A). Moreover, the efflux ratio at 2 h, 1 μM in data set [2] was > 50.
On the same counts, the results for `Cn1cc(-c2ccc(CNc3cc(-c4cnc5cc(OCC6CCNCC6)ccn45)ncn3)cc2)cn1` [A166, [4-(1-methyl-1H-pyrazol-4-yl)-benzyl]-{6-[7-(piperidin-4-ylmethoxy)-imidazo[1,2-a]pyridin-3-yl]-pyrimidin-4-yl}-amine] are 120 nM, 4 nM and > 50.
On the same counts, the results for `Cn1cc(-c2ccc(CNc3cc(-c4cnc5cc(OCC6CNC6)ccn45)ncn3)cc2)cn1` [A167, 6-{7-[(azetidin-3-yl)methoxy]imidazo[1,2-a]pyridin-3-yl}-N-{[4-(1-methyl-1H-pyrazol-4-yl)phenyl]methyl}pyrimidin-4-amine] are 500 nM, 7.5 nM and > 50.
Take `Cn1cc(-c2ccc(CNc3cc(-c4cnc5cc(OCCC6CCNC6)ccn45)ncn3)cc2)cn1` (stereo not drawn) [A175, [4-(1-methyl-1H-pyrazol-4-yl)-benzyl]-{6-[7-(2-pyrrolidin-3-yl-ethoxy)-imidazo[1,2-a]pyridin-3-yl]-pyrimidin-4-yl}-amine]: the IC50 in data set [1] was determined as 480 nM; at c-Kit(V654A), 9.8 nM. Further, in data set [2], the efflux ratio at 2 h, 1 μM is > 50.
The corresponding values for `Cn1ncc(-c2ccc(CNc3cc(-c4cnc5cc(OCCC6CCNC6)ccn45)ncn3)cc2)n1` (stereo not drawn) [A176, [4-(2-methyl-2H-[1,2,3]triazol-4-yl)-benzyl]-{6-[7-(2-pyrrolidin-3-yl-ethoxy)-imidazo[1,2-a]pyridin-3-yl]-pyrimidin-4-yl}-amine] are 84 nM, 3.2 nM and > 50.
As for `Cn1ncc(-c2ccc(CNc3cc(-c4cnc5cc(N6CCC(CCO)C6)ccn45)ncn3)cc2)n1` (stereo not drawn) [A179, 2-[1-(3-{6-[4-(2-methyl-2H-[1,2,3]triazol-4-yl)-benzylamino]-pyrimidin-4-yl}-imidazo[1,2-a]pyridin-7-yl)-pyrrolidin-3-yl]-ethanol], the IC50 in data set [1] worked out at 24 nM; at c-Kit(V654A), 3.1 nM. In addition, the efflux ratio at 2 h, 1 μM in data set [2] was > 50.
Consider `Cn1cc(-c2ccc(CNc3cc(-c4cnc5cc(OCC6CN(C7COC7)C6)ccn45)ncn3)cc2)cn1` [A183, N-{[4-(1-methyl-1H-pyrazol-4-yl)phenyl]methyl}-6-(7-{[1-(oxetan-3-yl)azetidin-3-yl]methoxy}imidazo[1,2-a]pyridin-3-yl)pyrimidin-4-amine], for which the IC50 in data set [1] stood at 27 nM; at c-Kit(V654A) it was 7.7 nM. Also, in data set [2], the efflux ratio at 2 h, 1 μM is < 15.
On the same counts, the results for `Cn1cc(-c2ccc(CNc3cc(-c4cnc5cc(OCCCN6CCN(C7COC7)CC6)ccn45)ncn3)cc2)cn1` [A184, [4-(1-methyl-1H-pyrazol-4-yl)-benzyl]-(6-{7-[3-(4-oxetan-3-yl-piperazin-1-yl)-propoxy]-imidazo[1,2-a]pyridin-3-yl}-pyrimidin-4-yl)-amine] are 76 nM, 20 nM and < 15.
The corresponding values for `Cn1ncc(-c2ccc(CNc3cc(-c4cnc5cc(OCC6CCN(C7CC7)CC6)ccn45)ncn3)cc2)n1` [A186, {6-[7-(1-cyclopropyl-piperidin-4-ylmethoxy)-imidazo[1,2-a]pyridin-3-yl]-pyrimidin-4-yl}-[4-(2-methyl-2H-[1,2,3]triazol-4-yl)-benzyl]-amine] are 80 nM, 7 nM and < 15.
The corresponding values for `Cn1ncc(-c2ccc(CNc3cc(-c4cnc5cc(OCC6CCN(CC#N)CC6)ccn45)ncn3)cc2)n1` [A189, [4-(3-{6-[4-(2-methyl-2H-[1,2,3]triazol-4-yl)-benzylamino]-pyrimidin-4-yl}-imidazo[1,2-a]pyridin-7-yloxymethyl)-piperidin-1-yl]-acetonitrile] are 160 nM, 9.8 nM and < 15.
As for `Cn1cc(-c2ccc(CNc3cc(-c4cnc5cc(OCC6CCN(CC(F)F)CC6)ccn45)ncn3)cc2)cn1` [A192, (6-{7-[1-(2,2-difluoro-ethyl)-piperidin-4-ylmethoxy]-imidazo[1,2-a]pyridin-3-yl}-pyrimidin-4-yl)-[4-(1-methyl-1H-pyrazol-4-yl)-benzyl]-amine], the figures for the IC50 (in data set [1]; at c-Kit(V654A)) were 67 nM and 28 nM, respectively. Also, in data set [2], the efflux ratio at 2 h, 1 μM is < 15.
As to `Cn1cc(-c2ccc(CNc3cc(-c4cnc5cc(OCCN6CC[S+]([O-])CC6)ccn45)ncn3)cc2)cn1` [A194, [4-(1-methyl-1H-pyrazol-4-yl)-benzyl]-(6-{7-[2-(1-oxo-1|4-thiomorpholin-4-yl)-ethoxy]-imidazo[1,2-a]pyridin-3-yl}-pyrimidin-4-yl)-amine], the figures for the IC50 (in data set [1]; on c-Kit(V654A)) were 92 nM and 6.1 nM, respectively. Moreover, in data set [2], the efflux ratio at 2 h, 1 μM was > 50.
